# Patent US9321809B2, “Macrocyclic compounds for suppressing replication of hepatitis C virus” (Ginkgo Pharma Co., Ltd., priority 2012, dated 2016)
# System: HCV replicon-containing huh-7 cells (replicon 1b)
# Assay: HCV Replicon Assay (luciferase readout)
# Type: cell-based
# Conditions: Hepatitis C virus; HCV replicon 1b in huh-7 cells, 48 h incubation, 1% DMSO, luciferase signal; read-out: EC50 (EC 50 on replicon 1b)
# Method: Compounds of formuala (I) are tested for the ability to inhibit viral replication of the Hepatitis C viruses by the following in vitro assays.
# DMEM (Life Technologies #41965-039) was supplemented with 10% FBS, 2 mM L-glutamine (Life Technologies #25030-024), penicillin (100 units/ml)/streptomycin (100 micrograms/ml) (Life Technologies #15140-114), 1× non-essential amino acids (Life Technologies #11140-035).
# Complete media was prepared by mixing FBS, DMEM media with Geneticin (G418). The compete media was preincubated at 37° C. in a CO2 incubator. Then, HCV replicon-containing huh-7 cells (V. Lohmann et. al. Science, 285, (1999)110-113) was taken out from 37° C. incubator. The residual medium was absorbed, and the cells were washed with PBS. After washing fluid was removed, 1 ml 0.25% trypsin/0.02% EDTA solution. The cells were washed by the above trypsin/EDTA solution to make sure that each cell was cleaned. After the trypsin/EDTA solution was absorbed, the mixture was incubated at 37° C. in a CO2 incubator for 3-5 minutes. Morphological changes were observed by inverted microscope, till the cells were detached from the wall of container completely.
# 3 ml of complete media was added to make the cells to suspend. The cells are counted with hematometer. Appropriate volumes of the complete media was added to adjust the cell density to 100,000/ml. Cells were plated with 100 μl of suspension at 10,000/well of 96 well plate. Plates were placed into 37° C. 5% CO2 incubator for 24 h.
# Preparation of Drug Solution:
# Drugs were diluted under aseptic conditions.
# Stock solutions may be prepared before the assay, which means that the test compounds are dissolved in 100% DMSO to afford a final concentration of 2 mM. Before the 96 well culture was completed, the stock solution was diluted with culter media to 100 fold of the final concentration (100× solution).
# 96-well plates were taken out from 37° C. CO2 incubator and morphological changes were observed by inverted microscope. In a ventilator, 1 μl of 100× drug solution was added to wells of 96 well plate until the final concentration of DMSO in the mixture is 1%. The plates were incubated at 37° C. in a CO2 environment for 48 h. 30 μl of Stead-G1® Luciferase Assay System (bought from Promega) was added to each well of 96 well plates and each plate is shaken in a plate shaker for 5 minutes to ensure cells cleavaged completely. The fluorescence signal was quantitated in a Perkin-Elmer plate reader (Envision) and integral time was setted to be 2 second. The following data were achieved after recording and analyzing the data.
row,SMILES,EC50 [nM]
1,"C=C[C@@H]1C[C@]1(NC(=O)[C@@H]1C[C@@H]2CN1C(=O)[C@H](C(C)(C)C)NC(=O)[C@@H](NC(=O)OC(C)(C)C)COCCCc1cccc3c1CN(C3)C(=O)O2)C(=O)NS(=O)(=O)C1CC1 [Compound IIa-13, tert-butyl N-[(1R,17S,20S,23S)-20-tert-butyl-23-{[(1R,2S)-1-[(cyclopropanesulfonyl)carbamoyl]-2-ethenylcyclopropyl]carbamoyl}-3,18,21-trioxo-2,15-dioxa-4,19,22-triazatetracyclo[20.2.1.1^4,7.0^6,11]hexacosa-6,8,10-trien-17-yl]carbamate]",10 to 50
2,"C=C[C@@H]1C[C@]1(NC(=O)[C@@H]1C[C@@H]2CN1C(=O)[C@H](C(C)(C)C)NC(=O)[C@@H](NC(=O)OC(C)(C)C)COCCCc1cc3c(nccc3cc1OC)O2)C(=O)NS(=O)(=O)C1CC1 [Compound IIb-2, tert-butyl N-[(3R,5S,8S,11S)-8-tert-butyl-5-{[(1R,2S)-1-[(cyclopropanesulfonyl)carbamoyl]-2-ethenylcyclopropyl]carbamoyl}-18-methoxy-7,10-dioxo-2,13-dioxa-6,9,23-triazatetracyclo[15.6.2.1^3,6.0^20,24]hexacosa-1(23),17(25),18,20(24),21-pentaen-11-yl]carbamate]",< 10
3,"C=C[C@@H]1C[C@]1(NC(=O)[C@@H]1C[C@@H]2CN1C(=O)[C@H](C1CCCCC1)NC(=O)[C@@H](NC(=O)OC(C)(C)C)COC/C=C/c1cc3c(nccc3cc1OC)O2)C(=O)O [Compound IIb-7, tert-butyl N-[(3R,5S,8S,11S,15E)-8-cyclohexyl-5-{[(1R,2S)-1-hydroxycarbonyl-2-ethenylcyclopropyl]carbamoyl}-18-methoxy-7,10-dioxo-2,13-dioxa-6,9,23-triazatetracyclo[15.6.2.13,6.020,24]hexacosa-1(23),15,17(25),18,20(24),21-hexaen-11-yl]carbamate]",500 to 20000
4,"CC[C@@H]1C[C@]1(NC(=O)[C@@H]1C[C@@H]2CN1C(=O)[C@H](C(C)(C)C)NC(=O)[C@@H](NC(=O)OC(C)(C)C)COCCCc1cccc3c1CN(C3)C(=O)O2)C(=O)NS(=O)(=O)C1CC1 [Compound IIa-14, tert-butyl N-[(1R,17S,20S,23S)-20-tert-butyl-23-{[(1R,2R)-1-[(cyclopropanesulfonyl)carbamoyl]-2-ethylcyclopropyl]carbamoyl}-3,18,21-trioxo-2,15-dioxa-4,19,22-triazatetracyclo[20.2.1.1^4,7.0^6,11]hexacosa-6,8,10-trien-17-yl]carbamate]",50 to 500
5,"C=C[C@@H]1C[C@]1(NC(=O)[C@@H]1C[C@@H]2CN1C(=O)[C@H](C(C)(C)C)NC(=O)[C@@H](NC(=O)OCc1ccccc1)COC/C=C/c1cccc3c1CN(C3)C(=O)O2)C(=O)NS(=O)(=O)C1CC1 [Compound IIa-10, benzyl N-[(1R,12E,17S,20S,23S)-20-tert-butyl-23-{[(1R,2S)-1-[(cyclopropanesulfonyl)carbamoyl]-2-ethenylcyclopropyl]carbamoyl}-3,18,21-trioxo-2,15-dioxa-4,19,22-triazatetracyclo[20.2.1.1^4,7.0^6,11]hexacosa-6,8,10,12-tetraen-17-yl]carbamate]",< 10
6,"C=C[C@@H]1C[C@]1(NC(=O)[C@@H]1C[C@@H]2CN1C(=O)[C@H](C(C)(C)C)NC(=O)[C@@H](NC(=O)OCC)COC/C=C/c1cccc3c1CN(C3)C(=O)O2)C(=O)NS(=O)(=O)C1CC1 [Compound IIa-9, ethyl N-[(1R,12E,17S,20S,23S)-20-tert-butyl-23-{[(1R,2S)-1-[(cyclopropanesulfonyl)carbamoyl]-2-ethenylcyclopropyl]carbamoyl}-3,18,21-trioxo-2,15-dioxa-4,19,22-triazatetracyclo[20.2.1.1^4,7.0^6,11]hexacosa-6,8,10,12-tetraen-17-yl]carbamate]",10 to 50
7,C=C[C@@H]1C[C@]1(NC(=O)[C@@H]1C[C@@H]2CN1C(=O)[C@H](C(C)(C)C)NC(=O)[C@@H](NC(=O)OC(C)(C)C)CCOC/C=C/c1cccc3c1CN(C3)C(=O)O2)C(=O)NS(=O)(=O)C1CC1 [Compound IIa-20],< 10
8,"C=C[C@@H]1C[C@]1(NC(=O)[C@@H]1C[C@@H]2CN1C(=O)[C@H](C(C)(C)C)NC(=O)[C@H](N)COC/C=C/c1cccc3c1CN(C3)C(=O)O2)C(=O)NS(=O)(=O)C1CC1 [Compound IIa-4, (1R,12E,17R,20S,23S)-17-amino-20-tert-butyl-N-[(1R,2S)-1-[(cyclopropanesulfonyl)carbamoyl]-2-ethenylcyclopropyl]-3,18,21-trioxo-2,15-dioxa-4,19,22-triazatetracyclo[20.2.1.1^4,7.0^6,11]hexacosa-6,8,10,12-tetraene-23-carboxamide]",500 to 20000
9,"C=C[C@@H]1C[C@]1(NC(=O)[C@@H]1C[C@@H]2CN1C(=O)[C@H](C(C)(C)C)NC(=O)[C@H](NC(=O)OC(C)(C)C)COC/C=C/c1cccc3c1CN(C3)C(=O)O2)C(=O)NS(=O)(=O)C1CC1 [Compound IIa-3, tert-butyl N-[(1R,12E,17R,20S,23S)-20-tert-butyl-23-{[(1R,2S)-1-[(cyclopropanesulfonyl)carbamoyl]-2-ethenylcyclopropyl]carbamoyl}-3,18,21-trioxo-2,15-dioxa-4,19,22-triazatetracyclo[20.2.1.1^4,7.0^6,11]hexacosa-6,8,10,12-tetraen-17-yl]carbamate]",50 to 500
10,"CC[C@@H]1C[C@]1(NC(=O)[C@@H]1C[C@@H]2CN1C(=O)[C@H](C1CCCCC1)NC(=O)[C@@H](NC(=O)OC(C)(C)C)COCCCc1cccc3c1CN(C3)C(=O)O2)C(=O)NS(=O)(=O)C1CC1 [Compound IIa-18, tert-butyl N-[(1R,17S,20S,23S)-20-cyclohexyl-23-{[(1R,2R)-1-[(cyclopropanesulfonyl)carbamoyl]-2-ethylcyclopropyl]carbamoyl}-3,18,21-trioxo-2,15-dioxa-4,19,22-triazatetracyclo[20.2.1.1^4,7.0^6,11]hexacosa-6,8,10-trien-17-yl]carbamate]",10 to 50
11,"CC[C@@H]1C[C@]1(NC(=O)[C@@H]1C[C@@H]2CN1C(=O)[C@H](C1CCCCC1)NC(=O)[C@@H](NC(=O)OC(C)(C)C)COC/C=C/c1cc3c(nccc3cc1OC)O2)C(=O)NS(=O)(=O)C1CC1 [Compound IIb-5, tert-butyl N-[(3R,5S,8S,11S,15E)-8-cyclohexyl-5-{[(1R,2R)-1-[(cyclopropanesulfonyl)carbamoyl]-2-ethylcyclopropyl]carbamoyl}-18-methoxy-7,10-dioxo-2,13-dioxa-6,9,23-triazatetracyclo[15.6.2.1^3,6.0^20,24]hexacosa-1(23),15,17(25),18,20(24),21-hexaen-11-yl]carbamate]",10 to 50
12,"C=C[C@@H]1C[C@]1(NC(=O)[C@@H]1C[C@@H]2CN1C(=O)[C@H](C1CCCC1)NC(=O)[C@@H](NC(=O)OC(C)(C)C)COC/C=C/c1cccc3c1CN(C3)C(=O)O2)C(=O)NS(=O)(=O)C1CC1 [Compound IIa-22, tert-butyl N-[(1R,12E,17S,20S,23S)-20-cyclopentyl-23-{[(1R,2S)-1-[(cyclopropanesulfonyl)carbamoyl]-2-ethenylcyclopropyl]carbamoyl}-3,18,21-trioxo-2,15-dioxa-4,19,22-triazatetracyclo[20.2.1.1^4,7.0^6,11]hexacosa-6,8,10,12-tetraen-17-yl]carbamate]",< 10
13,"C=C[C@@H]1C[C@]1(NC(=O)[C@@H]1C[C@@H]2CN1C(=O)[C@H](C(C)(C)C)NC(=O)[C@@H](NS(C)(=O)=O)COC/C=C/c1cccc3c1CN(C3)C(=O)O2)C(=O)NS(=O)(=O)C1CC1 [Compound IIa-8, (1R,12E,17S,20S,23S)-20-tert-butyl-N-[(1R,2S)-1-[(cyclopropanesulfonyl)carbamoyl]-2-ethenylcyclopropyl]-17-methanesulfonamido-3,18,21-trioxo-2,15-dioxa-4,19,22-triazatetracyclo[20.2.1.1^4,7.0^6,11]hexacosa-6,8,10,12-tetraene-23-carboxamide]",10 to 50
